Experimental data published in PubChem BioAssay (NCI).
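Dose response: 5 concentrations. Exposure: 48 h. Format: 96-well plates. Endpoint: linear interpolation; highest concentration if not reached. Here, GI50 denotes the concentration required for 50% inhibition of growth. TGI denotes the concentration required for complete inhibition of growth.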

Legend:
Assay in all cases: NCI-60 cell line screen, 48 h
[1] = test system: 786-0 renal
[2] = test system: A498 renal
[3] = test system: A549 NSCLC
[4] = test system: ACHN renal
[5] = test system: BT-549 breast
[6] = test system: CAKI-1 renal
[7] = test system: CCRF-CEM leukemia
[8] = test system: COLO 205 colon
[9] = test system: DU-145 prostate
[10] = test system: EKVX NSCLC
[11] = test system: HCC-2998 colon
[12] = test system: HCT-116 colon
[13] = test system: HCT-15 colon
[14] = test system: HL-60(TB) leukemia
[15] = test system: HOP-62 NSCLC
[16] = test system: HOP-92 NSCLC
[17] = test system: HS 578T breast
[18] = test system: HT29 colon
[19] = test system: IGROV1 ovarian
[20] = test system: K-562 leukemia
[21] = test system: KM12 colon
[22] = test system: LOX IMVI melanoma
[23] = test system: M14 melanoma
[24] = test system: MALME-3M melanoma
[25] = test system: MCF7 breast
[26] = test system: MDA-MB-231 breast
[27] = test system: MDA-MB-435
[28] = test system: MOLT-4 leukemia
[29] = test system: NCI-H226 lung

Question: What does the source list for `Cc1cc(Nc2ccc3c(c2)OCO3)c2cc3c(cc2n1)OCO3`?
Answer: GI50 [1]: 4.2 µM; TGI [1]: 17.8 µM; GI50 [2]: 0.812 µM; TGI [2]: 4.72 µM; GI50 [3]: 1.37 µM; TGI [3]: 11.6 µM; GI50 [4]: 6.23 µM; TGI [4]: 26.6 µM; GI50 [5]: 4.26 µM; TGI [5]: 26.2 µM; GI50 [6]: 2.55 µM; TGI [6]: 30.7 µM; GI50 [7]: 1.92 µM; TGI [7]: 10.2 µM; GI50 [8]: 1.31 µM; TGI [8]: 4.03 µM; GI50 [9]: 2.91 µM; TGI [9]: 12.3 µM; GI50 [10]: 1.64 µM; TGI [10]: 13.2 µM; GI50 [11]: 2.33 µM; TGI [11]: 6.47 µM; GI50 [12]: 1.42 µM; TGI [12]: 15.8 µM; GI50 [13]: 0.9 µM; TGI [13]: 16.6 µM; GI50 [14]: 0.745 µM; TGI [14]: > 19.9 µM; GI50 [15]: 3.84 µM; TGI [15]: 20.3 µM; GI50 [16]: 1.48 µM; TGI [16]: 9.07 µM; GI50 [17]: 1.08 µM; TGI [17]: 5.35 µM; GI50 [18]: 0.878 µM; TGI [18]: 18.8 µM; GI50 [19]: 0.318 µM; TGI [19]: 3.8 µM; GI50 [20]: 1.24 µM; TGI [20]: > 100 µM; GI50 [21]: 1.05 µM; TGI [21]: 14.4 µM; GI50 [22]: 1.85 µM; TGI [22]: 11.5 µM; GI50 [23]: 1.19 µM; TGI [23]: 6.99 µM; GI50 [24]: 2.08 µM; TGI [24]: 20.9 µM; GI50 [25]: 0.376 µM; TGI [25]: 15 µM; GI50 [26]: 2.58 µM; TGI [26]: 17 µM; GI50 [27]: 0.265 µM; TGI [27]: 1.37 µM; GI50 [28]: 2.51 µM; TGI [28]: > 54.5 µM; GI50 [29]: 2.94 µM
